{"source": "patent US12264163B2", "about": "“Compounds and methods for treating fibrotic pathologies” (Mayo Foundation for Medical Education and Research, priority 2019, dated 2025)", "key": {"[1]": {"tested_on": "αSMA", "assay": "TGFβ-induced αSMA+ stress fiber formation in fibroblasts", "assay_type": "cell-based, human", "conditions": "TGFβ 72 hours, DHX from 48-72 hours", "description": "Media was then exchanged for the indicated conditions for each experiment. Cells were fixed in 3.7% formalin (Sigma-Aldrich), permeabilized in 0.25% Triton X-100 (Sigma-Aldrich) and then blocked with 1% BSA for 1 h. Cells or tissue sections were incubated overnight with mouse monoclonal antibody against αSMA (Sigma-Aldrich F3777), and/or a rabbit monoclonal antibody against YAP/TAZ (Cell Signaling D24E4) diluted 1:200 in PBS with 1% BSA. Cells were then washed and exposed to flourescence-conjugated secondary antibodies (Invitrogen) diluted 1:1000 and DAPI (Thermo Fisher Scientific). Images were taken with a Cytation5 (BioTek) microscope. For scoring αSMA positive cells (FIG. 12), an observer blinded to the treatment conditions counted αSMA-positive cells using a visual threshold for bright fibrous staining; a minimum of 200 cells was counted for each condition. YAP/TAZ localization was quantified (FIGS. 6-10, 24-26, and 29-30) using Gen5 (Biotek) software. Images were taken at 4× magnification of both DAPI and YAP/TAZ staining. […] Quantification of double positive (YAP/TAZ and αSMA) cells from lung tissue sections (FIG. 17-21) was performed similarly; however separate thresholds were established for both YAP/TAZ and αSMA. A minimum of 4000 cells was quantified for each mouse."}, "[2]": {"tested_on": "IPF patient derived fibroblasts", "assay": "Traction force microscopy of IPF patient-derived fibroblasts", "assay_type": "cell-based, human", "conditions": "IPF fibroblasts on 6.4 kPa matrices", "description": "Traction Force Microscopy: Traction analysis was conducted as previously described. […] IPF patient derived fibroblasts were plated on the gels overnight and treated as indicated before traction force measurements. Images of gel surface-conjugated fluorescent beads were acquired for each cell before and after trypsinization using a Nikon ECLIPSE Ti microscope at ×10 magnification. Traction forces were estimated by measuring bead displacement fields and computing corresponding traction fields using TractionsForAll (freely distributed program that calculates 2-D tractions exerted by an adherent cell on its substrate)."}, "[3]": {"tested_on": "Collagen I and Fibronectin", "assay": "Immuno-ECM: TGFβ-induced collagen I and fibronectin accumulation", "assay_type": "cell-based, human", "conditions": "IPF patient-derived fibroblasts, TGFβ 48 hours then DHX 24 hours", "description": "IPF patient-derived fibroblasts grown at confluence were pre-stimulated with 2 ng/mL TGFβ for 48 hours and then treated with DHX (10 μM)+2 ng/mL TGFβ for an additional 24 hours prior to fixation. Cell derived matrix is measured using antibodies for Collagen I and Fibronectin. […] Representative traction maps are shown from cells plated onto 6.4 kPa matrices treated with the indicated concentration of DHX. RMS tractions were determined in two independent experiments; box and whisker plots show min to max, quartile, and mean from one representative experiment (****p<0.0001, *p<0.05 vs. 0.1% DMSO vehicle control).\nImmuno-ECM Adapting from previously published methods, IPF patient-derived fibroblasts were plated to confluence in clear-bottom 96-well plates. After cells attached, the medium was swapped for EMEM containing 0.10% FBS±2 ng/mL TGF-β. After 48 hours the indicated concentration of DHX or DMSO control was added to each well and incubated for 24 hours. WST-1 viability reagent was added to each well (Sigma-Aldrich) and measured on a Flexstation 3 (Molecular Devices) plate reader. […] Plates were imaged via a Li-Cor OdysseyXL system with quantification performed via densitometry. Data are expressed as IR intensity relative to WST-1 signal absorbance in order to account for any potential compound toxicity."}, "[4]": {"tested_on": "D1 receptor", "conditions": "cited from earlier work"}}, "data": [{"smiles": "Oc1cc2c(cc1O)[C@H]1c3ccccc3CN[C@@H]1CC2", "note": "(racemic) [Dihydrexidine]", "values": [{"measurement": "TGFβ-induced myofibroblastic transition (αSMA+ stress fibers)", "setting": "[1]", "result": "reversed this transition"}, {"measurement": "contractile forces (traction force microscopy)", "setting": "[2]", "result": "significantly and dose-dependently reduced the contractile forces"}, {"measurement": "TGFβ-stimulated accumulation of collagen I and fibronectin", "setting": "[3]", "result": "dose-dependently reversed"}, {"measurement": "efficacy at elevating cAMP (D1 receptor)", "setting": "[4]", "result": "full magnitude cAMP response"}]}]}
